Results on one molecule are retold here after patent US11242344B2, “(4-hydroxypyrrolidin-2-yl)-heterocyclic compounds and methods of use thereof” (Genentech, Inc., priority 2017, dated 2022).

What is called IC50 is the concentration needed to halve the response being measured.

The target in the test is NanoLuc VHL fusion protein (Homo sapiens (Human), UniProt P40337). Description: VHL HEK-293 BRET Assay (NanoBRET Target Engagement). The class given is cell-based. The settings on record: geometric mean where more than one measurement. In a few lines:
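HEK293 cells stably expressing NanoLuc-VHL, 2 h with compound titration and 1 uM final tracer, then Nano-Glo substrate plus extracellular NanoLuc inhibitor. BRET ratio 610/460 nm, background-corrected with no-tracer wells, normalised to DMSO and 10 uM unlabeled VHL antagonist controls; IC50 by four-parameter fit.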

NanoLuc VHL fusion protein, sequence (P40337 whole entry, looked up, the tested form may be a part): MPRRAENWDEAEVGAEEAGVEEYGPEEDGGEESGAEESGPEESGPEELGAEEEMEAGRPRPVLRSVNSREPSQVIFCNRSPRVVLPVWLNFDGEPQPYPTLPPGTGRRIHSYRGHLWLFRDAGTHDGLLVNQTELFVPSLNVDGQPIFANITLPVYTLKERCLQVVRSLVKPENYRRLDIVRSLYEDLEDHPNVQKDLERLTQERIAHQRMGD
NanoLuc VHL fusion protein, sequence (Q15370 whole entry partner, looked up, the tested form may be a part): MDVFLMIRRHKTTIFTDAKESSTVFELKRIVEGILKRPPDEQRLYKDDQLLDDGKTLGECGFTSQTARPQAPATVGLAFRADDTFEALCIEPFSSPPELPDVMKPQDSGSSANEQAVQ
NanoLuc VHL fusion protein, sequence (Q15369 whole entry partner, looked up, the tested form may be a part): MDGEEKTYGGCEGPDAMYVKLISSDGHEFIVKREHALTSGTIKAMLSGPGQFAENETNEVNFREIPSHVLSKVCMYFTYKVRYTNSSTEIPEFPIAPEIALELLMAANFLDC

Take `Cc1ncsc1-c1ccc([C@]2(C)NC(C3C[C@@H](O)CN3C(=O)[C@@H](NC(=O)CCCCCCCCCCNC(=O)c3cc4c(cc3CS(C)(=O)=O)-c3cn(C)c(=O)c5[nH]cc(c35)CN4c3ncc(F)cc3F)C(C)(C)C)=NC2=O)cc1` (single isomer, unassigned) [Example 1005.1]: it took 64.6 µM to reach half-maximal inhibition (IC50).
